{"source": "patent US20250344695A1", "about": "“METHOD FOR PEST CONTROL” (priority 2024, published 2025)", "key": {"[1]": {"test_system": "confused flour beetle, Tribolium confusum", "experiment": "chlorobenzene fumigation in 1.9-liter jars, confused flour beetle adults", "format": "in vivo", "settings": "21° C.", "method": "(§1) Example 1: Chlorobenzene fumigations were conducted for control of six insect species and one mite species and they were: rice weevil, Sitophilus oryzae (Coleoptera: Curculionidae), confused flour beetle, Tribolium confusum (Coleoptera: Tenebrionidae), navel orangeworm, Amyelois transitella (Lepidoptera: Pyralidae), spotted wing drosophila, Drosophila suzukii (Diptera: Drosophilidae), western flower thrips, Frankliniella occidentalis (Thysanoptera: Thripidae), eastern subterranean termite, Reticulitermes flavipes (Blattodea: Rhinotermitidae), and ham mite, Tyrophagus putrescentiae (Schrank) (Acarina: Acaridae) (FIG. 2). Most fumigations were conducted in 1.9-liter glass jars. Confused flour beetle and rice weevil were fumigated in 1.9-liter jars and in 60-liter chambers with corn. Navel orangeworm was fumigated in 21.8 L chambers modified from pressure cookers. […]\n(§2) A filter paper disc was clipped on the port underneath the lid with a metal clip. […] Insect mortality was then scored. Chlorobenzene doses were recorded as microliter liquid per liter of chamber space (ul/l).\n(§3) Confused flour beetle and rice weevil adults were collected separately in plastic vials from their prospective colonies. […] Chlorobenzene vapor concentrations were measured during fumigation using detector tubes. After fumigation, insects were kept at room temperature overnight before being scored for mortality. […]"}, "[2]": {"test_system": "rice weevil, Sitophilus oryzae", "experiment": "chlorobenzene fumigation in 1.9-liter jars, rice weevil adults", "format": "in vivo", "settings": "21° C.", "method": "as §1, §2, §3"}, "[3]": {"test_system": "spotted wing drosophila, Drosophila suzukii", "experiment": "chlorobenzene fumigation in 1.9-liter jars, spotted wing drosophila flies", "format": "in vivo", "settings": "50 μl/l dose, 3 h at 21° C.", "method": "(§4) Example 1: Chlorobenzene fumigations were conducted for control of six insect species and one mite species and they were: rice weevil, Sitophilus oryzae (Coleoptera: Curculionidae), confused flour beetle, Tribolium confusum (Coleoptera: Tenebrionidae), navel orangeworm, Amyelois transitella (Lepidoptera: Pyralidae), spotted wing drosophila, Drosophila suzukii (Diptera: Drosophilidae), western flower thrips, Frankliniella occidentalis (Thysanoptera: Thripidae), eastern subterranean termite, Reticulitermes flavipes (Blattodea: Rhinotermitidae), and ham mite, Tyrophagus putrescentiae (Schrank) (Acarina: Acaridae) (FIG. 2). Most fumigations were conducted in 1.9-liter glass jars. Confused flour beetle and rice weevil were fumigated in 1.9-liter jars and in 60-liter chambers with corn. Navel orangeworm was fumigated in 21.8 L chambers modified from pressure cookers.\nRice weevil and confused flour beetle were reared on pearled barley and wheat flour diet in jars, respectively. Western flower thrips were reared on lettuce plants in a greenhouse. Spotted wing drosophila was reared on an artificial diet in plastic cups. […]\nA filter paper disc was clipped on the port underneath the lid with a metal clip. […] Insect mortality was then scored. Chlorobenzene doses were recorded as microliter liquid per liter of chamber space (ul/l). […]"}, "[4]": {"test_system": "western flower thrips, Frankliniella occidentalis", "experiment": "chlorobenzene fumigation in 1.9-liter jars, western flower thrips larvae and adults", "format": "in vivo", "settings": "24 h at 2° C.", "method": "as §1, with “corn.” for “corn. Navel orangeworm was fumigated in 21.8 L chambers modified from pressure cookers.”\nas §2\nLarvae and adults of western flower thrips were collected from infested lettuce plants in small vials each containing a piece of lettuce leaf (ca 20/vial) and stored in a refrigerator to cool them down. […] Vapor concentrations of chlorobenzene were measured during fumigation. After fumigation, thrips were kept at 2° C. overnight before mortality was scored. […]"}, "[5]": {"test_system": "eastern subterranean termite, Reticulitermes flavipes", "experiment": "chlorobenzene fumigation in 1.9-liter jars, eastern subterranean termite workers", "format": "in vivo", "settings": "50 μl/l dose, 3 h at 21° C.", "method": "as §4\nRice weevil and confused flour beetle were reared on pearled barley and wheat flour diet in jars, respectively. […]\nas §2\nWorkers of eastern subterranean termites were obtained from a commercial source. […] After fumigation, vials with insects were held in an environmental chamber overnight before mortality was scored. […]"}, "[6]": {"test_system": "ham mite, Tyrophagus putrescentiae", "experiment": "chlorobenzene fumigation in 1.9-liter jars, ham mites on dog food kibbles", "format": "in vivo", "settings": "21° C., larvae and adults", "method": "as §1, §2\nHam mites on infested dog food kibbles were fumigated with chlorobenzene at different doses for 24 and 48 h at 21° C. […] After fumigation, vials with ham mites were held at 21° C. overnight before mortality of larvae and adults was scored. […] Chlorobenzene vapor concentrations were measured during each fumigation. […]"}, "[7]": {"test_system": "confused flour beetle", "experiment": "large-scale chlorobenzene fumigation of corn in a 60-liter chamber, confused flour beetle all life stages", "format": "in vivo, Tribolium confusum", "settings": "24 h at 21° C.", "method": "(§5) Procedure-Large-scale chlorobenzene fumigations of corn with confused flour beetle and rice weevil were conducted in a 60 L fumigation chamber. The chamber was modified from a 60 L diary pot with an added platform at bottom and a vertically positioned air blower to circulate air in the chamber (FIG. 3). A vial with filter paper was positioned near a port on the wall. A total of 20 kg corn was placed in 9 mesh bags. Confused flour beetle adults and other life stage in flour diet and rice weevil adults and other life stages in pearled barley were sealed in small plastic cages with mesh screens on top and bottom for air movement. One cage with confused four beetle culture medium with all life stages and one cage with all life stages of rice weevil were placed in each mesh bag. The bags were packed in the chamber in two layers. The last two containers with confused flour beetle and rice weevil respectively were placed on top of the corn bags. Ten cages for each species were set up to be fumigated. Five cages for each species were used as controls. The chamber was then placed in a fume hood. After the chamber was sealed, 30 ml chlorobenzene was injected into the vial in the chamber and the air blower was turned on to start a fumigation treatment. The fumigation treatment lasted 24 h at 21° C.\n(§6) In each fumigation, chlorobenzene vapor concentrations were measured at 2, 4, 6, 9, 21,and 24 h of each treatment using chlorobenzene detector tubes. For each measurement, a 40 ml air sample from the headspace of the chamber was taken and diluted 50-fold in a 1.9 L glass jar. Then, chlorobenzene detectors with a range of 2-500 ppm were used to measure chlorobenzene concentrations. At the end of each fumigation, the lid of the fumigation chamber was removed, and the air blower was kept running for at least 2 h to ventilate the chamber. The corn bags were then removed and containers with insects were recovered. Insects together with diet from each cage were placed in a plastic vial. All adults were removed from each vial and mortality of adults was scored next day. All vials with diet containing other life stages were incubated at 25° C. in an environmental chamber to allow surviving immature individuals to develop and emerge as adults. The vials were checked weekly to count and remove emerged adults to assess mortality of immature stages until there was no adult emergence for two consecutive weeks. A total of three large-scale fumigation tests have been conducted."}, "[8]": {"test_system": "rice weevil", "experiment": "large-scale chlorobenzene fumigation of corn in a 60-liter chamber, rice weevil all life stages", "format": "in vivo, Sitophilus oryzae", "settings": "24 h at 21° C.", "method": "as §5, §6"}, "[9]": {"test_system": "navel orangeworm, Amyelois transitella", "experiment": "24 h chlorobenzene fumigation in 21.8-liter chambers, navel orangeworm eggs, larvae and pupae", "format": "in vivo", "settings": "24 h at 21° C.; for Larvae Mortality (%) Mean ± SE: 2nd, 4th, 6th instar pooled", "method": "Procedure-Navel orangeworm eggs, larvae, and pupae were fumigated with chlorobenzene for 24 h at 21° C. in 21.8L chambers modified from pressure cookers to determine effects on mortality. Each chamber has a fan to circulate air. A small container with a piece of filter affixed in it was positioned next to the fan in each chamber as a reservoir for chlorobenzene (FIG. 4). Egg sheet with eggs oviposited during the last 3 days was harvested and cut into small pieces each with about 50 eggs. One piece of egg sheet was placed in a small 49 ml plastic vial and sealed with a screened lid. Larvae of three different ages (2nd, 4th, and 6th) were set up separately in 157 ml plastic vials each containing 3 g diet (10/vial). The vial was sealed with a screened lid. Three chlorobenzene does 50, 100, and 200 μl/l were tested in three chambers. They were achieved by adding 1, 2, and 4 ml of chlorobenzene in reservoirs in three fumigation chambers, respectively. Except for eggs that were only fumigated with chlorobenzene at 100 and 200 μl/l together with larvae and pupae, in each test, 5 vials of eggs, 9 vials of larvae (3 vials for each stage), and 3 vials of pupae were fumigated in one chamber. Controls were also set up for all life stages tested.\nAfter chlorobenzene was added, the chamber was sealed and the fan was turned on to circulate air continuously for the 24 h duration of fumigation. Chlorobenzene detector tubes were used to measure chlorobenzene vapor concentrations 5-6 times between 2 h after start and before the end of fumigations. By the end of fumigation, all chlorobenzene liquid had vaporized in all three treatments. After fumigation, vials with larvae were held at 21° C. overnight before larval mortality was scored. For navel orangeworm eggs, diet was added in each vial and vials were incubated at 25° C. to allow all viable eggs to hatch. After over 10 days, neonate larvae were counted to estimate egg mortality. Pupae were also incubated at 25° C. in an environmental chamber to allow all viable pupae to develop into moths, and moths were then counted to determine pupal mortality. A total of three tests were conducted."}, "[10]": {"settings": "cited from earlier work"}, "[11]": {"settings": "at 20° C.; cited from earlier work"}, "[12]": {"settings": "air=1; cited from earlier work"}, "[13]": {"settings": "cited from earlier work", "remark": "listed apart in the source"}, "[14]": {"settings": "100 μl/l dose (800 ppm vapor concentration), 48-h fumigation"}, "[15]": {"settings": "150 μl/l dose (1800 ppm vapor concentration), 24-h fumigation"}, "[16]": {"settings": "30 ml chlorobenzene in 60 L chamber with 20 kg corn"}, "[17]": {"settings": "large-scale fumigations of corn, 60 L chamber"}}}
{"compound": "Clc1ccccc1", "note": "[chlorobenzene]", "values": [{"measurement": "mortality of confused flour beetle adults", "setting": "[1]; [14]", "result": 100, "unit": "%"}, {"measurement": "mortality of confused flour beetle adults", "setting": "[1]; [15]", "result": 100, "unit": "%"}, {"measurement": "mortality of rice weevil adults", "setting": "[2]; [14]", "result": 100, "unit": "%"}, {"measurement": "mortality of rice weevil adults", "setting": "[2]; [15]", "result": 100, "unit": "%"}, {"measurement": "mortality of spotted wing drosophila flies", "setting": "[3]", "result": 100, "unit": "%"}, {"measurement": "mortality at 370 ppm", "setting": "[4]; 50 μl/l dose (about 370 ppm)", "result": 95.3, "unit": "%"}, {"measurement": "mortality at 630 ppm", "setting": "[4]; 75 μl/l dose (about 630 ppm)", "result": 100, "unit": "%"}, {"measurement": "mortality of termite workers", "setting": "[5]", "result": 100, "unit": "%"}, {"measurement": "mortality at 1700 ppm", "setting": "[6]; 150 μl/l dose (about 1700 ppm), 48-h fumigation", "result": 99.9, "unit": "%"}, {"measurement": "mortality at 2000 ppm", "setting": "[6]; 200 μl/l dose (about 2000 ppm), 24-h fumigation", "result": 100, "unit": "%"}, {"measurement": "Adults Mortality (%)", "setting": "[7]; [16]", "result": 100, "unit": "%"}, {"measurement": "Immature stages Survived to adults", "setting": "[7]; 30 ml chlorobenzene in 60 L chamber with 20 kg corn, adults emerged from 30 treatment vials", "result": 0}, {"measurement": "Immature stages Relative mortality (%)", "setting": "[7]; 30 ml chlorobenzene in 60 L chamber with 20 kg corn, relative to control by adults emerged", "result": 100, "unit": "%"}, {"measurement": "control of adults and immature life stages of confused flour beetle", "setting": "[7]; [17]", "result": "Complete control"}, {"measurement": "Adults Mortality (%)", "setting": "[8]; [16]", "result": 100, "unit": "%"}, {"measurement": "Immature stages Survived to adults", "setting": "[8]; 30 ml chlorobenzene in 60 L chamber with 20 kg corn, adults emerged from 30 treatment vials (1645 from 15 control vials)", "result": 73}, {"measurement": "Immature stages Relative mortality (%)", "setting": "[8]; 30 ml chlorobenzene in 60 L chamber with 20 kg corn, relative to control by adults emerged, assuming equal numbers of vials", "result": 97.8, "unit": "%"}, {"measurement": "control of adults of rice weevil", "setting": "[8]; [17]", "result": "complete control"}, {"measurement": "Pupae Mortality (%) Mean ± SE", "setting": "[9]; 50 μl/l dose", "result": "7.4 ± 3.8", "unit": "%"}, {"measurement": "Larvae Mortality (%) Mean ± SE", "setting": "[9]; 50 μl/l dose", "result": "20.4 ± 3.6", "unit": "%"}, {"measurement": "Pupae Mortality (%) Mean ± SE", "setting": "[9]; 100 μl/l dose", "result": "20.4 ± 5.0", "unit": "%"}, {"measurement": "Larvae Mortality (%) Mean ± SE", "setting": "[9]; 100 μl/l dose", "result": "69.1 ± 4.6", "unit": "%"}, {"measurement": "Eggs Total neonates", "setting": "[9]; 100 μl/l dose, 890 eggs (control 370 neonates of 887)", "result": 0}, {"measurement": "Pupae Mortality (%) Mean ± SE", "setting": "[9]; 200 μl/l dose", "result": 43.5, "unit": "%"}, {"measurement": "Larvae Mortality (%) Mean ± SE", "setting": "[9]; 200 μl/l dose", "result": "95.9 ± 1.3", "unit": "%"}, {"measurement": "Eggs Total neonates", "setting": "[9]; 200 μl/l dose, 884 eggs (control 370 neonates of 887)", "result": 0}, {"measurement": "effect on navel orangeworm eggs", "setting": "[9]; both doses (100 and 200 μl/l)", "result": "All eggs were killed"}, {"measurement": "water solubility", "setting": "[10]", "result": 466.3, "unit": "µg/mL"}, {"measurement": "vapor pressure", "setting": "[11]", "result": 11.7, "unit": "mmHg"}, {"measurement": "vapor density relative to air", "setting": "[12]", "result": 3.9}, {"measurement": "OSHA exposure limit", "setting": "[13]; 8-hour workday and 40-hour work week", "result": 75, "unit": "ppm"}, {"measurement": "oral and dermal toxicity", "setting": "[13]; EPA category 4", "result": "very low"}, {"measurement": "carcinogenicity", "setting": "[13]; reported", "result": "non-carcinogenic"}]}
